Patent US20060188913A1, “Methods and products for enhancing immune responses using imidazoquinoline compounds” (University of Iowa Research Foundation, priority 2001, published 2006)

Columns and labels:
[1] = test system: NF-kappa B luciferase reporter gene; assay: NF-kappa B luciferase reporter in transfected 293T cells, TLR-independent positive control; assay type: cell-based, human; settings: FIG. 2A
Description: (§1) Cells used for transfections were 293T (human embryo kidney cells, T-antigen transfected) or 293-TLR9-Luc (stable transfectants, human embryo kidney cells expressing the human TLR9 receptor and containing a genomic NF-kappa B-luciferase cassette).
(§2) Stimulation was performed 24 h after transfection. Medium of the cells was reduced to 1 ml (without medium change) and cells were stimulated with indicated amounts of R-848, LPS, ODN 8954, 2006 and IL-1 beta for 16 h.
(§3) Cell extracts were prepared by lysing the cells in 100 μl reporter lysis buffer using the freeze-thaw method. NF-kappa B stimulation was measured through luciferase activity (Promega). All data were normalized for beta-gal expression. Stimulation indices were calculated in reference to luciferase activity of medium without addition of ODN.
293T cells, stably transfected with a NF-kappa B-luciferase reporter construct, were transiently transfected with plasmids (pcDNA3.1 constructs) coding for full length hTLR2, hTLR7, hTLR8 and hTLR9. All transfections were normalized to beta-galactosidase activity. Twenty-four hours following transfection, cells were stimulated with R-848, LPS, CpG ODN 8954 (5′ […] 3′, SEQ ID NO:4), CpG ODN 2006, or IL-1 and then assayed for luciferase activity 16 h after stimulation. Each experiment was done at least twice with similar results.

[2] = molecular target: T1, hTLR8 (Homo sapiens, UniProt Q9NR97); assay: NF-kappa B luciferase activation in 293T cells transiently transfected with hTLR8; assay type: cell-based; settings: hTLR8-transfected 293T cells
T1 construct: plasmids (pcDNA3.1 constructs) coding for full length hTLR2, hTLR7, hTLR8 and hTLR9; expressed in transfected cells; host or cells: 293T cells
T1 sequence (Q9NR97 27-1041): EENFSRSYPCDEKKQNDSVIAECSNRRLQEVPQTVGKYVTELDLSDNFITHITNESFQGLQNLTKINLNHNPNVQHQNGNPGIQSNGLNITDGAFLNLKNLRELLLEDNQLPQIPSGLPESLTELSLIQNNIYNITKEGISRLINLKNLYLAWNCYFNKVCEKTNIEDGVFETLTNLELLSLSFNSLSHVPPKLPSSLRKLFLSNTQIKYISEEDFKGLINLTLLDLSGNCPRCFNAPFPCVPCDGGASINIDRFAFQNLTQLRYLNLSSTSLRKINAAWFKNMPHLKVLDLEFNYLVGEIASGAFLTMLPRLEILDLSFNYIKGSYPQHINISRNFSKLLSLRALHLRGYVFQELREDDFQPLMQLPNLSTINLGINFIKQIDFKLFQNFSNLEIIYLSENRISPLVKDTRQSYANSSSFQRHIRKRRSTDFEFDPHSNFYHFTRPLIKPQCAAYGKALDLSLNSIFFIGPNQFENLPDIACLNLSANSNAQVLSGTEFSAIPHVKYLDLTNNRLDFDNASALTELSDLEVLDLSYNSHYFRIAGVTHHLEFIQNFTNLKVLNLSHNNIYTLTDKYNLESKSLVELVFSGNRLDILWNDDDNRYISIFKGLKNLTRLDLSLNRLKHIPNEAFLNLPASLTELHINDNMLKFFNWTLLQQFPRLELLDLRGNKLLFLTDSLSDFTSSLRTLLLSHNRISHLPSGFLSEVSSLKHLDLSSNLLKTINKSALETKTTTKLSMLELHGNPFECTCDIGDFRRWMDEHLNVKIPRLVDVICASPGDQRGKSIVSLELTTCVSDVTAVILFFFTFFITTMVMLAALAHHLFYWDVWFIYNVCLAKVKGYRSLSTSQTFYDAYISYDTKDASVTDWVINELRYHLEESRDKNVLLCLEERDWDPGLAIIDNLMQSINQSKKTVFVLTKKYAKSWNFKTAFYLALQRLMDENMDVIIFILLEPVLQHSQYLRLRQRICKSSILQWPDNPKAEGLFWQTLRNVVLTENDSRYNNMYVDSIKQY
Description: as §1
(§4) Transfections were performed in six-well plates. Cells were plated the day before transfection at 4×10^5/well in DMEM+10% FCS.
(§5) Constructs: TLR cDNAs were cloned into pcDNA3.1. NF-kappa B activation was measured by using an 5× NF-kappa B-Luciferase construct (Stratagene). Transfection efficiency was determined by using a beta-galactosidase (beta-gal) reporter construct (p beta-Gal-Control, Clontech).
as §2, §3
(§6) 293T cells, stably transfected with a NF-kappa B-luciferase reporter construct, were transiently transfected with plasmids (pcDNA3.1 constructs) coding for full length hTLR2, hTLR7, hTLR8 and hTLR9. […]

[3] = molecular target: T2, hTLR7 (Homo sapiens, UniProt Q9NYK1); assay: NF-kappa B luciferase activation in 293T cells transiently transfected with hTLR7; assay type: cell-based; settings: hTLR7-transfected 293T cells
T2 construct: plasmids (pcDNA3.1 constructs) coding for full length hTLR2, hTLR7, hTLR8 and hTLR9; expressed in transfected cells; host or cells: 293T cells
T2 sequence (Q9NYK1 27-1049): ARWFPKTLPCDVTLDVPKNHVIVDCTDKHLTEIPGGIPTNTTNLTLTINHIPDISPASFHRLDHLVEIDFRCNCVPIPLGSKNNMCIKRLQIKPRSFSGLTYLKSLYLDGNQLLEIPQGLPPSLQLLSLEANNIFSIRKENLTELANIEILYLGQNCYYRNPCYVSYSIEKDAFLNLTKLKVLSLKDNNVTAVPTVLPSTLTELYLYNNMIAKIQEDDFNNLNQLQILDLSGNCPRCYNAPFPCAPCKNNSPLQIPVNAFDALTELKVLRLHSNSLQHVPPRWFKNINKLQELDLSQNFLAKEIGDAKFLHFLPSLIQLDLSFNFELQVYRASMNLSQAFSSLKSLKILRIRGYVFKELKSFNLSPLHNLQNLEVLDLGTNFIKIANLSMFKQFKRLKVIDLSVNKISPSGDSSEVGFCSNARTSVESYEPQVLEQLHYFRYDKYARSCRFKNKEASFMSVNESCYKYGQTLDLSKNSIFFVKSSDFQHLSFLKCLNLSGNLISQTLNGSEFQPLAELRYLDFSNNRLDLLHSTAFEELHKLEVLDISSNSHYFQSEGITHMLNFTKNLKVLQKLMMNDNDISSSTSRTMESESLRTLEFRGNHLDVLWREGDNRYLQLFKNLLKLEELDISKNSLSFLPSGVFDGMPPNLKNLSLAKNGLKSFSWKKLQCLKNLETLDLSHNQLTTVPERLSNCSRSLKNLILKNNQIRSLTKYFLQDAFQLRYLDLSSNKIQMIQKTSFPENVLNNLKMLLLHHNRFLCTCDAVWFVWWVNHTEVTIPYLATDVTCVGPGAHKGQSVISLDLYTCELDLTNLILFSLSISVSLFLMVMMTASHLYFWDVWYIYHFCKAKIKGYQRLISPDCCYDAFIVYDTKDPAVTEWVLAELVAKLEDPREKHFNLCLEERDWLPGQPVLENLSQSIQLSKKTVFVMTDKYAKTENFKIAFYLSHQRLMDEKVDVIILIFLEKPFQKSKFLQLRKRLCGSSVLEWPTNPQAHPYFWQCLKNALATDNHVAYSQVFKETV
Description: as §1, §4, §5, §2, §3, §6

[4] = molecular target: T2, hTLR7; assay: IL-8 production in 293 fibroblasts transiently expressing hTLR7; assay type: cell-based; settings: CpG-ODN 2 μM, LPS 100 ng/ml
Description: (§7) The cloned human TLR7 and human TLR8 cDNA were cloned into the expression vector pCDNA3. 1 (−) from Invitrogen using the NotI site. Utilizing a “gain of function” assay, hTLR7 and hTLR8 expression vectors were transiently expressed in human 293 fibroblasts (ATCC, CRL-1573) using the calcium phosphate method. Activation was monitored by IL-8 production after stimulus with CpG-ODN (2006 or 1668, 2 μM) or LPS (100 ng/ml).

[5] = molecular target: T1, hTLR8; assay: IL-8 production in 293 fibroblasts transiently expressing hTLR8; assay type: cell-based; settings: CpG-ODN 2 μM, LPS 100 ng/ml
Description: as §7

[6] = molecular target: T3, hTLR2 (Homo sapiens, UniProt O60603); assay: NF-kappa B luciferase activation in 293T cells transfected with hTLR2; assay type: cell-based
T3 construct: plasmids (pcDNA3.1 constructs) coding for full length hTLR2, hTLR7, hTLR8 and hTLR9; expressed in transfected cells; host or cells: 293T cells carrying an NF-kappa B-luciferase reporter
Description: as §1, §4, §5, §2, §3, §6

[7] = test system: human PBMC; assay: IP-10 secretion by human PBMC (ELISA); assay type: cell-based; settings: 48 hours, ODN 0.2-3.0 μg/ml versus R-848 0.01-1.0 μg/ml, FIG. 6A
Description: (§8) This experiment investigated the induction of the Th1 cytokine IFN-gamma as well as the Th1-related chemokine IP-10 (IFN-gamma inducible protein). Unfractionated human PBMC from three donors were incubated for 48 hours in the presence of varying concentrations of R-848 (0.01-1.0 μg/ml), varying concentrations of CpG ODN 2006 (0.2-3.0 μg/ml), varying concentrations of negative control ODN 5177 (0.2-3.0 μg/ml), SEB (50 ng/ml), or media alone, and then the concentrations of IP-10 and IFN-gamma in the supernatant were measured by ELISA.
In FIG. 6B, the combined effects of R-848 and CpG ODN (e.g., #2006) on IP-10 secretion are shown. Human PBMCs from three different donors were incubated for 48 hours with the indicated concentrations of ODNs and R-848, either individually or together. Supernatants were harvested and IP-10 was measured by ELISA. The data represent mean cytokine amounts.

[8] = test system: human PBMC; assay: IFN-gamma secretion by human PBMC (ELISA); assay type: cell-based; settings: 48 hours, compared to R-848, not shown
Description: as §8

T3 sequence (O60603 21-784): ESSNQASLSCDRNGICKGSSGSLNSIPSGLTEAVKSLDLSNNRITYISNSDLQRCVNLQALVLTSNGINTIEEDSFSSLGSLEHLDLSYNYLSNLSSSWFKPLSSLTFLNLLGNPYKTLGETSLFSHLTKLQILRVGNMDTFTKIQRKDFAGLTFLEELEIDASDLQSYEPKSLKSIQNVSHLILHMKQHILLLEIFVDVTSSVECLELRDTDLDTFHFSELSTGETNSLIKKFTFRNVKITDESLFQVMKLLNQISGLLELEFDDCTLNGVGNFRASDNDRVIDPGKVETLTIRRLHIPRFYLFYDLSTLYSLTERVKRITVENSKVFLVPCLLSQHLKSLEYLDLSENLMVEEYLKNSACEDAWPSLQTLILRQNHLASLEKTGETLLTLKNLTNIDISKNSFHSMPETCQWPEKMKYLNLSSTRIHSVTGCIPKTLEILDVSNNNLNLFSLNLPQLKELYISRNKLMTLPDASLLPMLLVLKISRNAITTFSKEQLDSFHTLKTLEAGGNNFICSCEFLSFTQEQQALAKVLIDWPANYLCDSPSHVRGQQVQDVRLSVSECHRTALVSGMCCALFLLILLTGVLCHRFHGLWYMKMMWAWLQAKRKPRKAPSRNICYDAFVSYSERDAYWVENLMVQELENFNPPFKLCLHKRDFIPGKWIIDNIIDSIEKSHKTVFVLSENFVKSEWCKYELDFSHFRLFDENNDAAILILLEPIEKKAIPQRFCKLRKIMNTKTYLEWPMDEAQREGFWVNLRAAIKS

Row | Substance | NF-kappa B activation through hTLR8 (in words) [2] | NF-kappa B activation through hTLR7 (in words) [3] | activation monitored by IL-8 production [4] | activation monitored by IL-8 production [5] | further results
1 | IL-1: cytokine used as positive control for NF-kappa B activation |  |  |  |  | activation of NF-kappa B luciferase reporter gene (in words) [1]: activated the NF-kappa B luciferase reporter gene in a TLR-independent manner
2 | CpG ODN 8954: CpG ODN 5′ GGGGACGACGTCGTGGGGGGG 3′, SEQ ID NO:4 (listed as DNA, chemistry not fully specified) | Neither LPS nor the CpG ODN 8954 appeared to activate | Neither LPS nor the CpG ODN 8954 appeared to activate |  |  | 
3 | 1668: CpG-ODN TCCATGACGTTCCTGATGCT, SEQ ID NO:12 (listed as DNA, chemistry not fully specified) [compound 1668] |  |  | None of the stimuli used activated | None of the stimuli used activated | 
4 | lipopolysaccharide [LPS] | Neither LPS nor the CpG ODN 8954 appeared to activate | Neither LPS nor the CpG ODN 8954 appeared to activate | None of the stimuli used activated | None of the stimuli used activated | NF-kappa B activation through hTLR2 (in words) [6]: activated by LPS
5 | ODN 5177: negative control ODN 5′ TCCGCCTGTGACATGCATT 3′; SEQ ID NO:5 (listed as DNA, chemistry not fully specified) |  |  |  |  | IP-10 induction [7]: but not the negative control ODN 5177 induced similar amounts of IP-10; IFN-gamma induction [8]: The same result was obtained
